Patent US8178579B2, “Dioxanes and uses thereof” (President and Fellows of Harvard College, priority 2001, dated 2012)
Entries after “also recorded” stand apart in the source; their conditions may differ. Like-named read-outs stand apart in the source and are kept apart here.

Assays:
HDAC6F = biological target: T1, HDAC6F (Homo sapiens, UniProt Q9UBN7); experiment: in vitro tubulin deacetylase (TDAC) assay, immunoprecipitated wild-type HDAC6F, MAP-stabilized tubulin; type: biochemical; details: TSA 300 nM or 1 μM; tubacin, niltubacin, trapoxin B 1 μM
T1 construct: made in house; host or cells: TAg Jurkat cells, transient transfection, anti-FLAG M2 immunoprecipitation
T1 sequence (Q9UBN7 1-1215): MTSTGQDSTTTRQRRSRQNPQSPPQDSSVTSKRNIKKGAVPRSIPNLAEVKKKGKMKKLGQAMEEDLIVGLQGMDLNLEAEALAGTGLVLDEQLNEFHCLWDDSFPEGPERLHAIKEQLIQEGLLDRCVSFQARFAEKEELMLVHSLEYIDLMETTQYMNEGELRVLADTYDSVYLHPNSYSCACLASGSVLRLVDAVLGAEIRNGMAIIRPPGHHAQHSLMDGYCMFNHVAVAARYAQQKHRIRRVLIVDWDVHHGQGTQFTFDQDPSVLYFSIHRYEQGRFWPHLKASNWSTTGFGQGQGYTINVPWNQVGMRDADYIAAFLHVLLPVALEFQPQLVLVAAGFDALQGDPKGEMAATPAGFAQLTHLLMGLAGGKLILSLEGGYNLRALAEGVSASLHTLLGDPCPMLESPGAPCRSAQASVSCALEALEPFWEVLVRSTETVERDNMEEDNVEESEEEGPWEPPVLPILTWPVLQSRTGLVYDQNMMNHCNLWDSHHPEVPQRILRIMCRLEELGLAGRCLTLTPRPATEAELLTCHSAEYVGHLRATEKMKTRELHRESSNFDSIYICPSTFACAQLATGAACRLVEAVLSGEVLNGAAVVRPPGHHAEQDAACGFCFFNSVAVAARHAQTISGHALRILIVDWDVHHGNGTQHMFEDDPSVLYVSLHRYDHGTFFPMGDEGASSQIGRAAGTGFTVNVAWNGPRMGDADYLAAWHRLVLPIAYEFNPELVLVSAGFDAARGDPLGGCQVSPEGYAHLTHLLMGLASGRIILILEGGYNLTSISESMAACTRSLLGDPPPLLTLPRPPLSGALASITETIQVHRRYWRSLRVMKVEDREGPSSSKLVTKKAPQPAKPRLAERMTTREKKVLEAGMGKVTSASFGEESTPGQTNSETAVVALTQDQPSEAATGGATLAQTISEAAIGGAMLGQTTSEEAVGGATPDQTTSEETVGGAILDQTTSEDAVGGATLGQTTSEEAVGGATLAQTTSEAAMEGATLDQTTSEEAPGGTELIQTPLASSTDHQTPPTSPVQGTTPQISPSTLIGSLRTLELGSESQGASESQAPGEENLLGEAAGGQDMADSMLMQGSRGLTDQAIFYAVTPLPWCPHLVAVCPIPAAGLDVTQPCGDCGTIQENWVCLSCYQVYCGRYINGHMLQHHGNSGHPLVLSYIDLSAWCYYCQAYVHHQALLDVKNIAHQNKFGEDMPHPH
Description: (§1) Tubulin and MAPs were isolated from bovine brain as described [See http://mitchison.med.harvard.edu/protocols/tubprep.html]. Whole brain and fractions from phosphocellulose chromatography were blotted for HDAC6 and acetylated α-tubulin. Cultured hippocampal neurons from dissociated 1-day old rat brains were transfected with an enhanced green fluorescent protein (EGFP)-actin construct at 4-5 days using the calcium phosphate method [E. N. Star, D. J. Kwiatkowski and V. N. Murthy, Nat. Neurosci. […] K. Miranti and M. E. Greenberg, J. Neurosci. […] Transfected cultures were allowed to grow for at least 48 h before the addition of experimental compounds.
(§2) [^3H]Acetate-incorporated histones were isolated from butyrate-treated HeLa cells as described [J. Taunton, C. […] Immunoprecipitates were incubated with acetylated histones and HDAC activity determined by scintillation counting as described [J. Taunton, C. […] TDAC assays were performed with immunoprecipitates using MAP-stabilized microtubules polymerized from MAP-rich tubulin fraction as described [C. […] Reactions were incubated (2 h) at 37° C., then incubated on ice (15 min).

A549 cells = experiment: cell cycle (BrdU labeling, FACS) and cell morphology; type: cell-based, human; details: for effect on cell cycle / DNA synthesis: FACS: 4 h, TSA 300 nM, tubacin 2 μM
Procedure: Bromodeoxyuridine labeling and fluorescence-activated cell sorting (FACS) were performed as described (K. M. Koeller et al., Chemistry & Biology, 10 (5) (2003) pp. 397-410). […] Samples were rinsed in PBS, trypsinized, and fixed for two hours in 70% ethanol/30% PBS (4° C.). Cells were then washed once in PBS and stored overnight in PBS (4° C.). To measure acetylated tubulin levels, samples were blocked for 45 minutes in ADB, aspirated, and incubated in ADB with anti-acetylated tubulin (1:500) overnight (4° C.). Samples were washed twice in ADB and incubated in ADB with FITC-conjugated anti-mouse IgG (goat; 1:200) for one hour (room temperature). After washing twice in TBS, cells were resuspended in 100 μL of ribonuclease A (100 μg/mL) and incubated for five minutes (37° C.). To measure the DNA content, 400 μL of propidium iodide (50 μg/mL) was added to the samples and incubated for one hour (room temperature). Samples were analyzed using a FACScanII flow cytometer (Becton-Dickinson), at the Dana Farber Cancer Institute, exciting at 488 nm and measuring the acetylated tubulin-linked FITC fluorescence through a 514 nm bandpass filter and the PI fluorescence through a 600 nm wave-length filter. Cell cycle distributions were calculated from 10,000 cells and modeled using ModFit LT (V2.0) software.

HDAC6 = biological target: T2, HDAC6 (Homo sapiens, UniProt Q9UBN7); experiment: HDAC assay, [3H]acetate-incorporated histones with immunoprecipitated FLAG-tagged HDAC6 (HDAC6F); type: biochemical; set-up: made in house; host or cells: TAg Jurkat cells, transient transfection, anti-FLAG M2 immunoprecipitation; details: [3H]-labeled histones, n=3
T2 sequence (Q9UBN7 1-1215): T1 sequence (Q9UBN7 1-1215)
Procedure: Cell culture and Transfections. TAg-Jurkat cells were transfected by electroporation with 5 μg of FLAG-epitope-tagged pBJ5 constructs (as described in ref. 5c) for expression of recombinant proteins. Cells were harvested 48 h posttransfection.
HDAC assays. […] Compounds were added in DMSO such that final assay concentrations were 1% DMSO. IC50s were calculated using Prism 3.0 software. Curve fitting was done without constraints using the program's Sigmoidal-Dose Response parameters. All data points were acquired in duplicate and IC50s are calculated from the composite results of at least two separate experiments.
as §1, §2

SMILES	inhibition of TDAC activity of wild-type HDAC6F (HDAC6F)	effect on cell cycle / DNA synthesis (A549 cells)	inhibition of HDAC activity of wild-type HDAC6F (HDAC6)	effect on cell morphology (A549 cells)	effect on cell cycle / DNA synthesis (A549 cells; listed as JCWII114)	effect on cell morphology (A549 cells; listed as JCWII114)
CC(/C=C/C(=O)NO)=C\[C@@H](C)C(=O)c1ccc(N(C)C)cc1 [TSA, trichostatin A, reference compound]	inhibited by TSA (300 nM) or tubacin (1 μM); also recorded: inhibited α-tubulin deacetylation	marked loss of a BrdU-positive S-phase population	only partial inhibited by TSA or tubacin	–	–	–
O=C(CCCCCCC(=O)Nc1ccc([C@@H]2OC(c3ccc(CO)cc3)C[C@H](CSc3nc(-c4ccccc4)c(-c4ccccc4)o3)O2)cc1)NO (stereo partly drawn) [tubacin]	inhibited by TSA (300 nM) or tubacin (1 μM); also recorded: inhibited α-tubulin deacetylation	No effect of tubacin on DNA synthesis or cell cycle distribution; also recorded: had no such effects	only partial inhibited by TSA or tubacin	had no overall effect on the morphology of A549 cells	no apparent affect on the cell cycle or on cell morphology	no apparent affect on the cell cycle or on cell morphology
